Test system: GM-CSF expression in Kras^G12D-PDEC
Assay: GM-CSF mRNA expression in GFP-Kras^G12D-PDEC after pathway inhibitor treatment (quantitative RT-PCR)
Format: cell-based, mouse
Conditions: 24 hour treatment; U0126 2 μM, LY294002 10 μM (FIG. 3B)
Description: Data are presented as an average fold induction over values from GFP-WT-PDEC or normal pancreata. Error bars indicate SD (n=3). […] Error bars indicate SD (n=3). […] Data are presented as an average fold induction over values from normal pancreatic tissue. Error bars indicate SD (n=3). FIG. 3D are photomicrographs showing immunohistochemical staining for GM-CSF protein in representative samples of human pancreatic cancer containing PanIN lesions (i-normal duct from adjacent non-malignant tissue; ii-iii PanIN lesions; iv-invasive PDA). White arrowheads indicate pancreatic duct (i), PanIN (ii and iii), and PDA (iv). Scale bars=50 μm. Extraction and reverse transcription of total RNA from PDECs was performed using RNeasy mini kit (QIAGEN) and QuantiTect reverse transcription kit (QIAGEN), respectively. SYBR Green PCR Master Mix (USB) was used for amplification and the samples were run on the Stratagene Mx 3005P. Expression levels were normalized by GAPDH.

`N#CC(=C(/N)Sc1ccccc1N)/C(C#N)=C(\N)Sc1ccccc1N` [U0126] was tested. Which “GM-CSF expression in Kras^G12D-PDEC” value did it give?
Its value is “abrogation of GM-CSF expression”.
